The values below come from ChEMBL document CHEMBL1201862, “PubChem BioAssay data set” (2004).

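Results reflect a 48-hour exposure of cells in 96-well plates to compound at five concentrations. GI50: concentration for 50% inhibition of growth.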 Activity calls are given as the source filed them. Rule as the data show it: active = GI50 up to about 1.1 µM and inactive = higher. A value given as a limit tells only on which side of the number the result lay.

Among the test systems are 786-0; A498; A549; COLO 205; EKVX; HCT-15; IGROV-1; K562; KM12; NCI-H522; OVCAR-4; OVCAR-8; RPMI-8226; SF-295; SK-MEL-28; SR; TK-10; UO-31; Hs-578T; MDA-MB-231.
Common to all, as to test: NCI anticancer screen, dose series, 48 h

On to `COc1ccc(CCc2ccccc2CC(=O)O)cc1`, for which the GI50 in the experiment on 786-0 was > 100 µM (inactive); with A498, > 100 µM (inactive); in the experiment with A549, > 100 µM (inactive); in the experiment on COLO 205, > 100 µM (inactive); in the experiment with EKVX, > 100 µM (inactive); in the experiment with HCT-15, more than 100 µM. Besides, the GI50 in the experiment on IGROV-1, with K562, with KM12, in the experiment with NCI-H522, in the experiment on OVCAR-4 and in the experiment on OVCAR-8 was > 100 µM (inactive) each time. For the same molecule, the GI50 in the experiment with RPMI-8226, with SF-295, in the experiment on SK-MEL-28, with SR, in the experiment with TK-10 and in the experiment with UO-31 was > 100 µM (inactive) throughout.

Regarding `COc1ccc(S(=O)(=O)NNS(C)(=O)=O)cc1OC`, the GI50 was > 100 µM (inactive) in the experiment on 786-0; > 100 µM (inactive) in the experiment with A498; > 100 µM (inactive) in the experiment on A549; > 100 µM (inactive) in the experiment on COLO 205; > 100 µM (inactive) in the experiment with EKVX; more than 100 µM in the experiment with HCT-15. The GI50 in the experiment with IGROV-1, in the experiment on K562, in the experiment on KM12, in the experiment with NCI-H522, in the experiment on OVCAR-4 and with OVCAR-8 was > 100 µM (inactive) each time. The GI50 with RPMI-8226, with SF-295, in the experiment with SR, in the experiment with TK-10 and in the experiment on UO-31 was > 100 µM (inactive) in each case.

In the case of `Nn1c(=S)[nH]nc(/C=C/c2c(O)ccc3ccccc23)c1=O`, the GI50 is 5.46 µM (inactive) with 786-0; 16.9 µM (inactive) in the experiment with A498; 6.78 µM (inactive) with A549; 7.18 µM (inactive) in the experiment on COLO 205; 2.75 µM (inactive) with EKVX; 3.13 µM in the experiment with HCT-15. Moreover, the GI50 with IGROV-1 was 1.64 µM (inactive); in the experiment on K562 it was 5.27 µM (inactive); with KM12, 6.12 µM (inactive); in the experiment with NCI-H522, 3.32 µM (inactive); in the experiment on OVCAR-4 it was 4.06 µM (inactive); in the experiment with OVCAR-8, 1.78 µM (inactive). In addition, the GI50 with RPMI-8226 was 28.6 µM (inactive); in the experiment on SF-295, 8.85 µM (inactive); in the experiment on SK-MEL-28, 8.95 µM (inactive); with SR it was 4.67 µM (inactive); in the experiment on UO-31, 6.35 µM (inactive).

`CCc1cccc(C)c1NC(=O)CC1C(=O)Nc2ccccc2S1(=O)=O` (configuration not stated): the GI50 in the experiment on 786-0 is 15.7 µM (inactive); with A498 it was 21 µM (inactive); with A549, 18.6 µM (inactive); in the experiment with EKVX, 15.5 µM (inactive); in the experiment on HCT-15, 12 µM; in the experiment on IGROV-1, 13.4 µM (inactive). Besides, the GI50 in the experiment on K562 was 2.92 µM (inactive); in the experiment on NCI-H522 it was 15.8 µM (inactive); in the experiment with OVCAR-4, 14.9 µM (inactive); in the experiment with OVCAR-8, 19.8 µM (inactive); with RPMI-8226, 13.9 µM (inactive); in the experiment with SF-295 it was 26.2 µM (inactive). In addition, the GI50 was 18.5 µM (inactive) with SK-MEL-28, 5.65 µM (inactive) in the experiment on SR, 29.3 µM (inactive) in the experiment with TK-10 and 13.5 µM (inactive) with UO-31.

For the molecule `CC(=O)CC(=O)NC=O`, the GI50 in the experiment with 786-0 is > 100 µM (inactive); in the experiment with A498, > 100 µM (inactive); with A549 it was > 100 µM (inactive); in the experiment with COLO 205, > 100 µM (inactive); in the experiment with EKVX, > 100 µM (inactive); in the experiment on HCT-15, more than 100 µM. The GI50 in the experiment on IGROV-1, in the experiment with K562, in the experiment with KM12, in the experiment on NCI-H522, in the experiment on OVCAR-4 and in the experiment on OVCAR-8 was > 100 µM (inactive) in each case. The GI50 in the experiment on RPMI-8226, in the experiment with SF-295, in the experiment with SK-MEL-28, in the experiment with SR, in the experiment with TK-10 and in the experiment with UO-31 was > 100 µM (inactive) in each case.

Regarding `CCn1c(CCl)nc2c1C(=O)c1ccccc1C2=O`, the GI50 was 3.04 µM (inactive) in the experiment with 786-0; 3.4 µM (inactive) in the experiment with A549; 2.46 µM (inactive) with EKVX; 1.66 µM in the experiment with HCT-15; 2.29 µM (inactive) in the experiment on Hs-578T; 1.7 µM (inactive) with IGROV-1. Moreover, the GI50 in the experiment with K562 was 2.36 µM (inactive); with KM12, 1.73 µM (inactive); with NCI-H522, 0.292 µM (active); with OVCAR-4, 1.66 µM (inactive); in the experiment on OVCAR-8, 1.58 µM (inactive); in the experiment on RPMI-8226, 2.12 µM (inactive). For the same molecule, the GI50 in the experiment on SF-295 is 1.88 µM (inactive); with SK-MEL-28 it was 1.76 µM (inactive); in the experiment on SR, 0.401 µM (active); in the experiment with TK-10 it was 2.51 µM (inactive).

`CC(=O)C1CC2(c3ccccc3)C(=O)c3ccccc3N2O1` (configuration not stated): the GI50 with 786-0 is > 100 µM (inactive); in the experiment on A498 it was > 100 µM (inactive); in the experiment with A549 it was > 100 µM (inactive); in the experiment with COLO 205, > 100 µM (inactive); in the experiment on EKVX, > 100 µM (inactive); in the experiment with HCT-15, more than 100 µM. Also, the GI50 in the experiment on IGROV-1, with K562, in the experiment on NCI-H522, in the experiment on OVCAR-4, with OVCAR-8 and with RPMI-8226 was > 100 µM (inactive) throughout. Also, the GI50 in the experiment on SF-295, in the experiment with SK-MEL-28, with SR and with UO-31 was > 100 µM (inactive) each time.

On to `CC1(C)OCC2OC3([C@@H]4OC(C)(C)O[C@H]4CO)OC(C)(C)OC3C2O1` (some centres not stated), for which the GI50 in the experiment on 786-0 is > 100 µM (inactive); in the experiment with A498, > 100 µM (inactive); in the experiment with A549 it was > 100 µM (inactive); in the experiment with COLO 205 it was > 100 µM (inactive); in the experiment with EKVX, > 100 µM (inactive); with HCT-15 it was more than 100 µM. In addition, the GI50 in the experiment with IGROV-1, in the experiment with K562, in the experiment with KM12, with MDA-MB-231, in the experiment with OVCAR-4 and with OVCAR-8 was > 100 µM (inactive) each time. The GI50 in the experiment with RPMI-8226, in the experiment on SF-295, in the experiment on SK-MEL-28, in the experiment on SR and in the experiment on UO-31 was > 100 µM (inactive) in each case.

Regarding `CN(C)c1ccc(/C=C(/NC(=O)c2ccccc2)c2nc3cc(Cl)ccc3[nH]2)cc1`, the GI50 in the experiment on 786-0 was 27.8 µM (inactive); in the experiment on A498, 72.3 µM (inactive); with A549 it was 63.2 µM (inactive); in the experiment with COLO 205, 20.7 µM (inactive); with EKVX, 87.3 µM (inactive); with HCT-15, 16.6 µM. Also, the GI50 with IGROV-1 was > 100 µM (inactive); with K562, 19 µM (inactive); with KM12, 15.6 µM (inactive); with NCI-H522, 22 µM (inactive); with OVCAR-4 it was 18.6 µM (inactive); in the experiment on OVCAR-8, 35.3 µM (inactive). In addition, the GI50 in the experiment on RPMI-8226 is 19.1 µM (inactive); in the experiment on SF-295 it was 28 µM (inactive); with SK-MEL-28, 83.9 µM (inactive); in the experiment on SR it was 30.3 µM (inactive); with TK-10, 64.4 µM (inactive); with UO-31, 28.8 µM (inactive).

In the case of `O=C(NCCCCCCCCNC(=O)c1cccc2ccccc12)c1cccc2ccccc12`, the GI50 in the experiment with 786-0 was 4.89 µM (inactive); in the experiment on A498 it was 17.1 µM (inactive); in the experiment on A549, 34.2 µM (inactive); in the experiment with COLO 205, 55.1 µM (inactive); in the experiment with EKVX, 19.5 µM (inactive); in the experiment on HCT-15, 97.5 µM. Moreover, the GI50 is 20.4 µM (inactive) in the experiment on IGROV-1; > 100 µM (inactive) with K562; > 100 µM (inactive) in the experiment with KM12; 9.4 µM (inactive) in the experiment on NCI-H522; 4.01 µM (inactive) in the experiment with OVCAR-4; 9.91 µM (inactive) in the experiment with OVCAR-8. Further, the GI50 in the experiment on RPMI-8226 was > 100 µM (inactive); in the experiment on SF-295 it was 12.4 µM (inactive); in the experiment on SK-MEL-28 it was > 59 µM (inactive); in the experiment on SR it was > 100 µM (inactive); with TK-10, 12.1 µM (inactive); with UO-31 it was 6.3 µM (inactive).

As to `COC(=O)[C@@]12OC[C@]34C([C@@H](O)C1O)[C@@]1(C)CC(=O)C(O)=C(C)C1C[C@H]3OC(=O)[C@H](OC(=O)/C=C(/c1ccccc1)C(F)(F)F)[C@H]42` (some centres not stated), the GI50 in the experiment with 786-0 is 7.93 µM (inactive); in the experiment on A498, 1.82 µM (inactive); in the experiment with A549 it was 4.33 µM (inactive); with COLO 205, 6.67 µM (inactive); in the experiment with EKVX, 12 µM (inactive); in the experiment on HCT-15 it was 7.93 µM. For the same molecule, the GI50 was 2.16 µM (inactive) in the experiment on IGROV-1; 4.93 µM (inactive) in the experiment with K562; 5.74 µM (inactive) in the experiment on KM12; 2.42 µM (inactive) in the experiment with NCI-H522; 6.31 µM (inactive) with OVCAR-4; 10.5 µM (inactive) in the experiment with OVCAR-8. Further, the GI50 is 1.56 µM (inactive) in the experiment on RPMI-8226; 4.18 µM (inactive) with SF-295; 4.72 µM (inactive) in the experiment on SK-MEL-28; 0.655 µM (active) with SR; 7.74 µM (inactive) in the experiment with TK-10; 6.82 µM (inactive) in the experiment with UO-31.

As to `CCC1(O)C(=O)OCc2c1cc1n(c2=O)Cc2cc3ccc(CO)cc3nc2-1` (configuration not stated), the GI50 was 1.99 µM (inactive) in the experiment with 786-0; 7.82 µM (inactive) with A498; 6.04 µM (inactive) in the experiment with A549; 14.2 µM (inactive) in the experiment with COLO 205; 16.8 µM (inactive) in the experiment on EKVX; 15.6 µM with HCT-15. For the same molecule, the GI50 with IGROV-1 was 12.2 µM (inactive); in the experiment on K562, 4.3 µM (inactive); with KM12 it was 9.35 µM (inactive); in the experiment on NCI-H522, 1.64 µM (inactive); with OVCAR-4, 23.8 µM (inactive); in the experiment on OVCAR-8, 2.62 µM (inactive). Further, the GI50 in the experiment on RPMI-8226 is 7.08 µM (inactive); in the experiment with SF-295, 3.18 µM (inactive); in the experiment with SK-MEL-28, > 78.5 µM (inactive); with SR, 0.0646 µM (active); with TK-10, > 95.3 µM (inactive); in the experiment with UO-31, 3.81 µM (inactive).
